Experimental data as given in patent US20200289474A1, “METHODS OF TREATING PAIN WITH A THIAZOLINE ANTI-HYPERALGESIC” (priority 2019, published 2020).
Where “and” joins values, the source holds several entries; their conditions need not be identical. Equal entries are not always repeated. Entries after “also recorded” stand apart in the source; their conditions may differ. Where two headings read alike, the source gives them in different places.

Experiments:
[1] = rat single dose excretion/metabolite study (urine and feces); format: in vivo
Excerpt: Further metabolism work in additional species will be undertaken.

[2] = rat brain distribution study; format: in vivo
Excerpt: A rat brain distribution study performed in order to determine standard pharmacokinetic parameters and to assess the brain penetration properties of Compound 1 administered orally and intravenously. […] The compound distributed readily in tissues with a steady-state volume of distribution of 1.7 L/kg.

[3] = dog 28-day repeat dose PO study; format: in vivo; settings: for Cmax: dog 28 Day PO
Method: Beagle dogs (4/sex/group plus 2/sex/group for control and high dose animals for recovery) were administered daily doses of 0, 100, 250 or 400 mg/kg/day of Compound 1 in 0.5% HPMC. […] Dogs in Group 1 (Vehicle Control) were bled once at approximately 2-4 hours post-dose on those days.

stability in plasma = format: in vitro ADME; settings: human plasma
[4] = rat 7 day repeat IV dose study; format: in vivo; settings: 7 day IV
Method: In a third study, SD rats (3/sex/group) were administered Compound 1 IV via the tail vein for 7 days at doses of 0, 75 or 150 mg/kg/day. The vehicle was 15% dimethylacetamide, 85% phosphate buffered saline. Blood was collected from all surviving animals for toxicokinetic analysis approximately 2 hours after the last dose on Day 7.

[5] = tested on: incision-induced hyperalgesia; assay: Brennan incisional model, prophylactic paradigm; format: in vivo, rat
Excerpt: Two incisional pain models were used to assess Compound 1 effects on hyperalgesia. The first model is referred to as the Brennan model in which, under anesthesia, a 1 cm longitudinal incision to the skin and underlying fascia of a rat hindpaw is made. The second is a variation but is a more invasive procedure in which the skin and muscle are spread apart using forceps which creates a longer-lasting hypersensitivity.
Using the Brennan protocol and a prophylactic paradigm, Compound 1 (3 doses given PO) or vehicle was administered 15 min prior to incision. At the 24-, 48-, and 72-h time points post-incision, mechanical thresholds were obtained (manual von Frey filament, using up/down method).
In a subsequent experiment, the same paradigm was used with Compound 1 administered at a dose of 30 mg/kg PO along with positive control group consisting of celecoxib (30 mg/kg PO), morphine (10 mg/kg SC), and vehicle.

[6] = tested on: incision-induced hyperalgesia; assay: mouse incisional model (mimicking the Brennan protocol); format: in vivo; settings: 10 mg/kg IP QD, Days 1 and 3 after incision
Method: In a mouse incisional model (mimicking the Brennan protocol), animals were baselined for mechanical thresholds prior to incision and then given a daily dose of Compound 1 (10 mg/kg IP QD) or vehicle for 7 days.

MDCKII control cells = assay: cytotoxicity by lactate dehydrogenase (LDH) release; format: cell-based
[7] = dog 7-day repeat dose PO study; format: in vivo; settings: dog 7 Day PO, N = 1
Method: The objective was to develop a preliminary toxicity profile of Compound 1 following daily oral (gavage) administration for 7 days to male and female dogs to support dose selection for a 28-day toxicity study in dogs. Doses were selected based on the results of the MTD phase. Dose levels were 0 (Vehicle Control), 200, 350 and 400 mg/kg (1 dog/sex/group). The vehicle was 0.5% aqueous HPMC.
The animals used in this study were returned to the holding colony

normal sensation = normal sensation in uninjured animals

## CC1(C)SC(Nc2ccccc2O)=N[C@@H]1C(=O)O.Cl [Compound 1, (R)-2-(2-hydroxyphenylamino)-5,5-dimethyl-4,5-dihydrothiazole-4-carboxylic acid mono-hydrochloride]
[1]; rat single dose, urine and feces
  administered compound recovered unchanged: 5-15%
[1]; rats
  form excreted in urine and feces: primarily as a sulfate conjugate
[2]; rat, in vivo, po, 30 mg/kg
  peak plasma concentration: 9 µg/mL
  time to peak plasma concentration: ≤ 1 h
[2]; rats
  steady-state volume of distribution: 1.7 L/kg
[2]; rats, 30 mg/kg oral dose
  oral bioavailability: 111%
  terminal half-life: 1.6 h
[2]; rats, 1 h after IV administration
  brain-to-plasma concentration ratio: 0.02
[3]; both sexes, beagle, dog, in vivo, po, dog 28-day PO, all animals, read-out: median tmax
  Tmax at 28 days: 1 h
[3]; both sexes, beagle, dog, in vivo, po, dog 28-day study (summary), read-out: Tmax
  Tmax at 28 days: ≤ 1 h
[3]; both sexes, beagle, in vivo, po, dog 28-day pivotal study, at some doses
  Cmax at 28 days: > 100000 ng/mL
[3]; both, beagle, dog, in vivo, po
  mean t1/2: 3.5 h
[3]; Day 1, 100 mg/kg, F
  Cmax: 69300 ng/mL
[3]; Day 1, 100 mg/kg, M
  Cmax: 49900 ng/mL
[3]; Day 1, 250 mg/kg, F
  Cmax: 101000 ng/mL
[3]; Day 1, 250 mg/kg, M
  Cmax: 104000 ng/mL
[3]; Day 1, 400 mg/kg, F
  Cmax: 129000 ng/mL
[3]; Day 1, 400 mg/kg, M
  Cmax: 128000 ng/mL
[3]; Day 15, 100 mg/kg, F
  Cmax: 53000 ng/mL
[3]; Day 15, 100 mg/kg, M
  Cmax: 50400 ng/mL
[3]; Day 15, 250 mg/kg, F
  Cmax: 94600 ng/mL
[3]; Day 15, 250 mg/kg, M
  Cmax: 88000 ng/mL
[3]; Day 15, 400 mg/kg, F
  Cmax: 123000 ng/mL
[3]; Day 15, 400 mg/kg, M
  Cmax: 112000 ng/mL
[3]; Day 28, 100 mg/kg, F
  Cmax: 60800 ng/mL
[3]; Day 28, 100 mg/kg, M
  Cmax: 45000 ng/mL
[3]; Day 28, 250 mg/kg, F
  Cmax: 89500 ng/mL
[3]; Day 28, 250 mg/kg, M
  Cmax: 105000 ng/mL
[3]; Day 28, 400 mg/kg, F
  Cmax: 131000 ng/mL
[3]; Day 28, 400 mg/kg, M
  Cmax: 125000 ng/mL
Stability in plasma
  stability in plasma: stable
[4]; 75 mg/kg, F, 2 h after last dose Day 7, individual animals, mono-hydrochloride, 75 mg/kg
  Conc in rat plasma: 2670 ng/mL and 3250 ng/mL and 3180 ng/mL
[4]; 75 mg/kg, F, 2 h after last dose Day 7, individual animals, mono-hydrochloride, 75 mg/kg, read-out: Conc in rat plasma
  concentration at 2 h: 12.20 µM and 11.94 µM
[4]; 75 mg/kg, M, 2 h after last dose Day 7, individual animals, mono-hydrochloride, 75 mg/kg
  Conc in rat plasma: 2350 ng/mL and 2380 ng/mL and 4310 ng/mL
[4]; 75 mg/kg, M, 2 h after last dose Day 7, individual animals, mono-hydrochloride, 75 mg/kg, read-out: Conc in rat plasma
  concentration at 2 h: 8.94 µM and 16.18 µM
[4]; 150 mg/kg, F, 2 h after last dose Day 7, individual animals, mono-hydrochloride, 150 mg/kg
  Conc in rat plasma: 5990 ng/mL and 2430 ng/mL and 5530 ng/mL
[4]; 150 mg/kg, F, 2 h after last dose Day 7, individual animals, mono-hydrochloride, 150 mg/kg, read-out: Conc in rat plasma
  concentration at 2 h: 22.49 µM and 9.12 µM and 20.76 µM
[4]; 150 mg/kg, M, 2 h after last dose Day 7, individual animals, mono-hydrochloride, 150 mg/kg
  Conc in rat plasma: 4280 ng/mL and 6910 ng/mL and 6560 ng/mL
[4]; 150 mg/kg, M, 2 h after last dose Day 7, individual animals, mono-hydrochloride, 150 mg/kg, read-out: Conc in rat plasma
  concentration at 2 h: 25.95 µM and 24.63 µM
[4]; female, Sprague-Dawley (SD), rat, plasma, iv, 75 mg/kg, 75 mg/kg, F, 2 h after last dose Day 7, individual animals, read-out: Conc in rat plasma
  concentration at 2 h: 2670 ng/mL and 10 µM
[4]; female, Sprague-Dawley (SD), rat, plasma, iv, 75 mg/kg, 75 mg/kg, F, 2 h after last dose Day 7, read-out: Mean Conc in rat plasma
  concentration at 2 h: 3030 ng/mL
[4]; female, Sprague-Dawley (SD), rat, plasma, iv, 150 mg/kg, 150 mg/kg, F, 2 h after last dose Day 7, read-out: Mean Conc in rat plasma
  concentration at 2 h: 4650 ng/mL
[4]; male, Sprague-Dawley (SD), rat, plasma, iv, 75 mg/kg, 75 mg/kg, M, 2 h after last dose Day 7, individual animals, read-out: Conc in rat plasma
  concentration at 2 h: 2350 ng/mL and 8.82 µM
[4]; male, Sprague-Dawley (SD), rat, plasma, iv, 75 mg/kg, 75 mg/kg, M, 2 h after last dose Day 7, read-out: Mean Conc in rat plasma
  concentration at 2 h: 3010 ng/mL
[4]; male, Sprague-Dawley (SD), rat, plasma, iv, 150 mg/kg, 150 mg/kg, M, 2 h after last dose Day 7, individual animals, read-out: Conc in rat plasma
  concentration at 2 h: 4280 ng/mL and 16.1 µM
[4]; male, Sprague-Dawley (SD), rat, plasma, iv, 150 mg/kg, 150 mg/kg, M, 2 h after last dose Day 7, read-out: Mean Conc in rat plasma
  concentration at 2 h: 5920 ng/mL
[5]; 10 mg/kg PO single dose 15 min prior to incision, mono-hydrochloride
  hyperalgesia, effect relative to vehicle: statistically significant reversal of hyperalgesia; also recorded: statistically significant effect
[5]; 30 mg/kg PO single dose
  hyperalgesia, effect relative to vehicle: full efficacy
[5]; 3 doses PO, 15 min prior to incision, 24, 48, 72 h post-incision
  hyperalgesia, mechanical thresholds (von Frey) relative to vehicle: reversal of hyperalgesia in a dose-dependent manner
[6]
  hyperalgesia (mechanical thresholds): not hyperalgesic
MDCKII control cells; 100 μM
  percent cytotoxicity (LDH release): 31.3%
MDCKII control cells; 600 μM
  percent cytotoxicity (LDH release): 33.6%
[7]; Day 1, 200 mg/kg, F
  AUC0-last: 582 µg·h/mL
  Cmax: 152000 ng/mL
  t1/2: 1.3 h
[7]; Day 1, 200 mg/kg, M
  AUC0-last: 538 µg·h/mL
  Cmax: 150000 ng/mL
  t1/2: 1.1 h
[7]; Day 1, 350 mg/kg, F
  AUC0-last: 834 µg·h/mL
  Cmax: 228000 ng/mL
  t1/2: 1.2 h
[7]; Day 1, 350 mg/kg, M
  AUC0-last: 613 µg·h/mL
  Cmax: 176000 ng/mL
  t1/2: 1.1 h
[7]; Day 1, 400 mg/kg, F
  AUC0-last: 464 µg·h/mL
  Cmax: 109000 ng/mL
  t1/2: 3.9 h
[7]; Day 1, 400 mg/kg, M
  AUC0-last: 657 µg·h/mL
  Cmax: 167000 ng/mL
  t1/2: 1.2 h
[7]; Day 7, 200 mg/kg, F
  AUC0-last: 411 µg·h/mL
  Cmax: 103000 ng/mL
  t1/2: 1.5 h
[7]; Day 7, 200 mg/kg, M
  AUC0-last: 540 µg·h/mL
  Cmax: 121000 ng/mL
  t1/2: 1.4 h
[7]; Day 7, 350 mg/kg, F
  AUC0-last: 738 µg·h/mL
  Cmax: 207000 ng/mL
  t1/2: 2.4 h
  tmax: 0.5 h
[7]; Day 7, 350 mg/kg, M
  AUC0-last: 591 µg·h/mL
  Cmax: 184000 ng/mL
  t1/2: 1.2 h
[7]; Day 7, 400 mg/kg, F
  AUC0-last: 751 µg·h/mL
  Cmax: 183000 ng/mL
  t1/2: 2.5 h
[7]; Day 7, 400 mg/kg, M
  AUC0-last: 210 µg·h/mL
  Cmax: 69000 ng/mL
  t1/2: 1.3 h
Normal sensation
  effect on normal sensation: does not alter normal sensation
